Results on 4 compounds are retold here after US20160168186A1, “Method of Treating Dengue Fever” (RIBOSCIENCE LLC, priority 2011, published 2016).

Series [1] relates to H241: dengue virus serotype 4. As to the kind of experiment: Dendritic Cells Infection Assay (viral RNA by real time PCR). The class given is cell-based. As to conditions: Dendritic cell, human primary immature monocyte derived dendritic cells, MOI 2, 24 h, dengue RNA relative to 18S rRNA. The protocol: Cryopreserved human immature monocyte derived Dendritic Cells (iDC) from individual donors were obtained from Stemcell Technologies (CAT# PB-DC001F). iDC were counted and incubated at a concentration of 15,000 cells/well (96 well plate) in RPMI 1640 media containing 10% (v/v) fetal bovine serum (FBS), 1% (v/v) penicillin/streptomycin (Invitrogen™) for 48 h at 37° C. in a 90% humidified, 5% CO2 atmosphere prior to the start of the experiment.
In a 96 well flat-bottom plate, 15000 iDC from individual donors were infected with dengue virus at a multiplicity of infection (MOI) of 2 in a volume of 50 μl for 2 h. After Infection iDCs were washed and cultured in complete RPMI media in the presence of serially diluted compounds. Each virus/drug combination was tested either in duplicate or triplicate (Depending on the availability of iDC from individual donors). Plates were incubated for 24 h at 37° C. in a 90% humidified, 5% CO2 atmosphere. After 24 h cells were washed and cellular RNA were isolated. Viral RNA and endogenous 18S rRNA control (Applied Bio Systems) was quantified by a real time PCR assay. The viability of mock-infected and infected iDC were monitored at described time points using a CellTiter Glo® (promega) assay according to manufacturer's recommendation.
Cellular RNA was isolated by PerfectPure™ RNA 96 cell kit (5 PRIME) according to manufacturer's recommendation. Transcriptor First Strand cDNA Synthesis Kit (Roche) was used to generate cDNA using random hexamer primers. […] First ΔCt was calculated by subtracting the 18S rRNA CT value from the dengue RNA CT value. ΔCts from duplicate taqman assay were averaged. […] Relative quantification was calculated using the following formula. Relative quantification=2^−averageΔΔCT. […]
Background: In qPCR the cycle at which signal appears reflects the starting amount.

In series [2] the test system is dengue. The following applies: by inhibiting the dengue 2′-O-methyltransferase NS5 domain; cited from earlier work.
Series [3] relates to dengue. As to conditions: mouse model; cited from earlier work.
The subject of series [4] is dengue. As to conditions: cited from earlier work.

Read-outs that look alike come from different tables or passages of the source.

A word on the IC50: it is the concentration at which inhibition is half-maximal. In the case of `[N-]=[N+]=N[C@]1(COP(=O)(N[C@@H](Cc2ccccc2)C(=O)OCc2ccccc2)Oc2cccc3ccccc23)O[C@@H](n2ccc(=O)[nH]c2=O)[C@H](O)[C@@H]1O` (stereo partly drawn) [Compound I-9, (S)-2-[[(2R,3S,4R,5R)-2-Azido-5-(2,4-dioxo-3,4-dihydro-2H-pyrimidin-1-yl)-3,4-dihydroxy-tetrahydro-furan-2-ylmethoxy]-(naphthalen-1-yloxy)-phosphorylamino]-3-phenyl-propionic acid benzyl ester], the 50% inhibitory concentration (IC50) in series [1] stood at 16 µM.

`C[C@H](NP(=O)(OC[C@@]1(N=[N+]=[N-])O[C@@H](n2cnc3c(N)ncnc32)[C@H](O)[C@@H]1O)Oc1ccccc1)C(=O)OCc1ccccc1` (stereo partly drawn) [Compound I-2, (S)-2-{[(2R,3S,4R,5R)-5-(6-Amino-purin-9-yl)-2-azido-3,4-dihydroxy-tetrahydro-furan-2-ylmethoxy]-phenoxy-phosphorylamino}-propionic acid benzyl ester]: the IC50 in series [1] came out at 1.9 µM.

For the compound `NC(=O)c1ncn([C@@H]2O[C@H](CO)[C@@H](O)[C@H]2O)n1` [Ribavirin], in series [2], the “activity against dengue in tissue culture” value is on record as “works against dengue in tissue culture”. Further, the protection against dengue result in series [3] and in series [4] (rhesus monkey model) was “did not show protection” in each case. In addition, the adverse effects entry in series [4] (mouse model or rhesus monkey model, text does not say which) was “induced anemia and thrombocytosis”.

As for `CCOC(=O)[C@H](Cc1ccccc1)NP(=O)(OC[C@@]1(N=[N+]=[N-])O[C@@H](n2ccc(=O)[nH]c2=O)[C@H](O)[C@@H]1O)Oc1cccc2ccccc12` (stereo partly drawn) [Compound I-10, (S)-2-[[(2R,3S,4R,5R)-2-Azido-5-(2,4-dioxo-3,4-dihydro-2H-pyrimidin-1-yl)-3,4-dihydroxy-tetrahydro-furan-2-ylmethoxy]-(naphthalen-1-yloxy)-phosphorylamino]-3-phenyl-propionic acid ethyl ester], the IC50 in series [1] worked out at 15 µM.
